For one series, the target named is T1, EZH2 (Mus musculus, UniProt Q61188).
T1 construct: endogenous in cells; host or cells: Mouse Embryonic Fibroblasts (MEF)
The experiment in a line: UNC1999 treatment of mouse embryonic fibroblasts, H3K27me3 immunostaining and western blot. The format is cell-based. Here is the method: Mouse Embryonic Fibroblasts (MEF) were maintained in culture in Dulbecco's Modified Eagle's Media (DMEM), 10% fetal bovine serum (FBS) with penicillin and streptomycin, at 37° C., 5% CO2. The day before treatment, the cells were trypsinized and seeded at a density of 50,000 cells on poly-ornithine coated coverslips in 24 well plates. The next day, the media was discarded and fresh media containing various doses of the UNC1999 inhibitor dissolved in dimethyl sulfoxide (DMSO), ranging from 1 μM to 50 μM was added in triplicates, then incubated back at 37° C. for 48H. Control cells received the respective dimethyl sulfoxide DMSO used with the UNC1999. The coverslips were washed 3 times with pre-warmed phosphate buffer saline (PBS) 1× at room temperature (RT). The cells were fixed with 4% paraformaldehyde (PFA) for 12 min at RT. After two more washes in PBS, the cells were immediately proceeded for immunostaining. For western blot analysis, 200,000 cells were seeded in triplicates in 6 wells plates and treated as above.
Immunohistochemistry was performed on treated and non-treated slides. The sections were washed 3 times with cooled PBS 1× before being permeabilized with Triton X-100 for 20 min to further allow optimal antibodies-antigens interactions everywhere in the tissue and cells. The sections were blocked for 1 h with buffer containing 3% BSA (w/v), 5% NGS (v/v) in PBS 1× containing 0.3% Triton X-100. Appropriate antibodies dilutions (see list of antibodies with their respective applications in Table 2) were prepared in blocking solution and sufficient amount were laid and transferred to 4° C. over-night. The next day, the antibodies solutions were shed-off and the remaining non-interacting probes were washed off 3 times with PBS 1×. Interacting probes were then detected by applying a solution of appropriate conjugated secondary antibodies Alexa Fluor 488 or Alexa fluor 633 diluted in PBS 1× 1 h at RT. Finally, the nuclei were counterstained with 4′,6-diamidino-2-phenylindole (DAPI) solution prepared in PBS. Alternatively, for difficult to retrieve antigens such as cGMP and CDK4, special conditions were applied: Successful detection of CDK4 requires signal amplification, either with TSA* fluorescein detection kit (PerkinElmer) or 3,3′-diaminobenzidine (DAB) revelation system (Dako) according to providers instructions. The cGMP detection was achieved by permeabilizing the membrane with soft detergent solution (0.1% Triton X-100) and using Tris buffer (TBS) throughout the incubation steps. All the preparations were mounted with Mowiol and measurements were taken using an Olympus BX60 fluorescence microscope or Zeiss confocal microscopy (LSM 510 3.2 software). […]
(Immunoblotting shows a protein as a band on a membrane.)

The next series deals with Rd1 mice. Briefly: Intravitreal injection of UNC1999 in PN8 Rd1 mice, H3K27me3 and TUNEL staining of the ONL. The series is classed as in vivo, mouse. Here is the method: The UNC1999 inhibitor was supplied as lyophilized powder from commercial source (#SML0778-5MG, SIGMA). The stock solution was prepared in 100% DMSO according to the manufacturer's instructions. Sufficient amount of DMSO was added to the vial to generate a 10 mM stock solution. For optimal injection procedure, we reviewed three different parameters prior to intermediate solution preparation. Firstly, considering the volume of the vitreous of young mice (post-natal day 8, PN08) which is approximately 5.3 μl; the maximum safe amount (1 μl) that could be injected (final volume 6.3 μl) and the calculated effective dose of […] obtained from increasing doses along with cell culture experiments (see below). Therefore, the stock solution was then diluted in physiological buffer (0.9% NaCl) in order to make a 20 μM intermediate solution for subsequent experiments.
(§1) The compound was delivered by intravitreal injection into the eyeball of PN08 Rd1 littermates. The animals (08 in total) were first anesthetized intraperitoneally (ip) with a mixture of 20 mg/kg Ketamine+300 μg/Kg of Dorbene. After 30 min, the recovery was performed by an ip injection of 300 μg/kg of Alzane. When necessary, the future edge of the eyelid was forced to open and maintained with forceps. The injection needle filled with 20 μM UNC1999 solution was inserted carefully into the vitreous through the sclera. A single dose (1 μl) of the intermediate solution was delivered slowly, leading to a final concentration of 2.5-3 μM, with a corresponding DMSO concentration of 0.0317%. For each animal, one eye received the compound whereas the other eye was injected with the vehicle. The injected animals were kept warmed and benefited from closest inspection until they wake up from anesthesia. 400 μl of 5% glucose and paracetamol were administered subcutaneously and intraperitoneally respectively to help for recovery before transferred back to their normal habits. The mice were sacrificed 4 days post injection and the eyeball excised as described below. Before processing, the eyes were carefully inspected for any sign of cataracts and unexpected lesions. Similarly, a single dose of UNC1999 (solution of 36 μM) was administered by intravitreal injection to 2 months old Fam161a^−/− mice (slow degenerative process), with repeated injection every week. The animal was sacrificed 4 days after the fourth injection.
The animals were sacrificed by a 7 min exposure to CO2. The Histology was performed on enucleated eyes. Prior to cryosectioning, the eye globes were excised from the optic nerve and were perforated at the cornea level (a single tiny hole) with 25 G needle and transfer to 4% PFA (w/v) at RT. After 1 h incubation period, the eyes were washed in PBS 1× before being transferred in 30% sucrose over night at 4° C. The eyes were embedded in yazula and frozen at −20° C. and then 14 μm sections were performed with cryostat. The sections were collected on six serial slides for each eye. All quantifications were performed on the most central cryosections including (or surrounding) the optic nerve. Measurements of rows of nuclei were taken at the same geographic area for both dorsal and ventral sides of the retina in all sections and slides analyzed. The data were pooled as a mean for the dorsal or ventral zone of the retina
The frozen slides were warmed at RT, rehydrated and washed 3 times with PBS 1×. […]

A further series relates to C57/B16 healthy mice. The experiment in a line: ERG recording of retina function in healthy mice before and one week after intravitreal injection. The format is in vivo, mouse. As to the method:
To test whether the UNC1999 dose tested ([…]) has a toxic effect on retina function, the retina activity of control (injected with the vehicle, DMSO) and UNC1999 treated C57/B16 healthy mice was recorded by ERG before and one week after intravitreal injection (FIG. 12). In scotopic condition, the b-wave maximum amplitude baseline of the DMSO treated group was a bit higher than the UNC1999 group one before the injection.

In another series the test system is Fam161a-/- mice. Briefly: Repeated weekly intravitreal injection of UNC1999 in Fam161a-/- mice, photoreceptor rows and H3K27me3. The format is in vivo, mouse. Particulars: 2-month-old Fam161a-/- mice. Here is the method: as §1
The animals were sacrificed by a 7 min exposure to CO2. […] All quantifications were performed on the most central cryosections including (or surrounding) the optic nerve. Measurements of rows of nuclei were taken at the same geographic area for both dorsal and ventral sides of the retina in all sections and slides analyzed. […]
Immunohistochemistry was performed on treated and non-treated slides. […] Interacting probes were then detected by applying a solution of appropriate conjugated secondary antibodies Alexa Fluor 488 or Alexa fluor 633 diluted in PBS 1× 1 h at RT. […]

Where [1] appears, read: mouse embryonic fibroblasts, FIG. 7B.
The mark [2] stands for this setting: Rd1 PN8, intravitreal, 2.5 μM final eye concentration, 4 days post injection, vs DMSO treated eye.
Where [3] appears, read: Rd1 eyes injected at PN8, 2.5 μM final eye concentration, vs vehicle (DMSO).
Where [4] appears, read: intravitreal, weekly, four injections, solution of 36 μM.

Entries after “also recorded” stand apart in the source; their conditions may differ.

T1 sequence (Q61188 whole entry): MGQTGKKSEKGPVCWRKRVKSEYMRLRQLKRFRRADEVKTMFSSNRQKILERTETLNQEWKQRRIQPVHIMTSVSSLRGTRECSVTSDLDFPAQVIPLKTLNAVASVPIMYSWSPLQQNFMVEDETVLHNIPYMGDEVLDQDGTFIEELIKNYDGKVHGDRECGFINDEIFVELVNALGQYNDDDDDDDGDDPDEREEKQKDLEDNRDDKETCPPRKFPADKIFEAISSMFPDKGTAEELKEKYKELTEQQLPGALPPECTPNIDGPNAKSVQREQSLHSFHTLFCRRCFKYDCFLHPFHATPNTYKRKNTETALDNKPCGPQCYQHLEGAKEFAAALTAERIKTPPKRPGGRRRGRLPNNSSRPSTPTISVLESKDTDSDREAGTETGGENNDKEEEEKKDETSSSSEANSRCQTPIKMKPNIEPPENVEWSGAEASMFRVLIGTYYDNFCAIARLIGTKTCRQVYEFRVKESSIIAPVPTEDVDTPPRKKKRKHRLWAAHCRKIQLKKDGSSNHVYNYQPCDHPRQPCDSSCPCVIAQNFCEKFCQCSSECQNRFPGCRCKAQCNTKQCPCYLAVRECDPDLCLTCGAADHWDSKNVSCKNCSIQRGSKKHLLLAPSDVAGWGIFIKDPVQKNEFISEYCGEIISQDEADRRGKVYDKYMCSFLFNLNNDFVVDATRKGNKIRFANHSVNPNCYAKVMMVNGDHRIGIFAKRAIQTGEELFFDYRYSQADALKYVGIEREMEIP
T1 sequence (Q921E6 whole entry partner): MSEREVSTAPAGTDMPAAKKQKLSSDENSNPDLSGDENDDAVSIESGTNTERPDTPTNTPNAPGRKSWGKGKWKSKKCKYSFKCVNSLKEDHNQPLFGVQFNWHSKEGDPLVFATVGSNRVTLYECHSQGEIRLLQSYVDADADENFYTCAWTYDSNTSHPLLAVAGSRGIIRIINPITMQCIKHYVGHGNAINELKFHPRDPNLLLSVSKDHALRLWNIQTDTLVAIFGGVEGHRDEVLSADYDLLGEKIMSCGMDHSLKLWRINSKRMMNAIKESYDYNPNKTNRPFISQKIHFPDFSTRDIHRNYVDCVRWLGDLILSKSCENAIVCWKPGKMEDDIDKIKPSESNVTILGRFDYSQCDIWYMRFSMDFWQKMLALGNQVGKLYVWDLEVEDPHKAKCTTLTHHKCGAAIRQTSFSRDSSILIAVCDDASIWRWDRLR
T1 sequence (Q80U70 whole entry partner): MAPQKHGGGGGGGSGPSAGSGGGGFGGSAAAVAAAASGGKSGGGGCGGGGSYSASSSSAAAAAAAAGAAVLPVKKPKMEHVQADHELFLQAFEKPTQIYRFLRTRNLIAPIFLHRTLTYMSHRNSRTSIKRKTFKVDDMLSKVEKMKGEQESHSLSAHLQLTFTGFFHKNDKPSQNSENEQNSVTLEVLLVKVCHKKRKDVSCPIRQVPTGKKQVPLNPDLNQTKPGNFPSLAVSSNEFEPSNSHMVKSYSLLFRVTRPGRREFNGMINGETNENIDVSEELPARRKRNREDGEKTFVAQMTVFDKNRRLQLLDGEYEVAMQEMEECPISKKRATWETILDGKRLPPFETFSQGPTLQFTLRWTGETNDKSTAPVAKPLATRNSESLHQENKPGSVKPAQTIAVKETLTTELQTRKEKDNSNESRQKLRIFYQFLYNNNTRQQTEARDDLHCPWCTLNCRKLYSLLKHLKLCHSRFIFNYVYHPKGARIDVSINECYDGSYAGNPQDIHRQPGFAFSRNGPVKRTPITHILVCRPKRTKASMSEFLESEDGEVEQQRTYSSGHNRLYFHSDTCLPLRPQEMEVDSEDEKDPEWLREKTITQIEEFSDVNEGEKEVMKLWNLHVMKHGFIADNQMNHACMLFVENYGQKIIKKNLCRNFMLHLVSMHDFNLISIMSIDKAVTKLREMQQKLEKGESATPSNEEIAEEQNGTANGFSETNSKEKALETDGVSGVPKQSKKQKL
T1 sequence (Q60972 whole entry partner): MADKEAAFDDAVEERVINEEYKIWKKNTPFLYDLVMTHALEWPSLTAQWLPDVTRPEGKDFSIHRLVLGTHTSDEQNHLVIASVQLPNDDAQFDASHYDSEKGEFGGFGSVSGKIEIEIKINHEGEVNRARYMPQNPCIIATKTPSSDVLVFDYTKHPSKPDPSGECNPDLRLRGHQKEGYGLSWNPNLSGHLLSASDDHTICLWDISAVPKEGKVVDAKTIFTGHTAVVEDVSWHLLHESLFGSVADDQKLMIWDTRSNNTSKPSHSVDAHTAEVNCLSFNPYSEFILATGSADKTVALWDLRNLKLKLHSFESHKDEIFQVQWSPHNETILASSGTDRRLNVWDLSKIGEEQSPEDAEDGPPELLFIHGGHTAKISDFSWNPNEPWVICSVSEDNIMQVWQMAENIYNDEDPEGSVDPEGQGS

Turning to `CCCc1cc(C)[nH]c(=O)c1CNC(=O)c1cc(-c2ccc(N3CCN(C(C)C)CC3)nc2)cc2c1cnn2C(C)C` [UNC1999], on EZH2 (setting [1]), the “H3K27me3 mark by immunocytochemistry labelling” value is on record as “robust decreased of the mark” and the “levels of EZH2” value is reported as “slightly affected”. Further, the calculated effective dose at EZH2 (obtained from increasing doses along with cell culture experiments) is 6 µM. Also, the “block of endogenous levels of H3K27me3” value at EZH2 (proliferating mouse embryonic fibroblasts, 2.5 μM, compared to DMSO control) is reported as “efficient to block the endogenous levels of H3K27me3”. Also, in the series with Rd1 mice (setting [2]), the “decline of hyper H3K27me3 signal in the ONL” value is on record as 75% and the “decrease of number of TUNEL positive cells” value is 70%. In the series on Rd1 mice (setting [3]), the “H3K27me3 positive cells (in words)” value was “marked reduction” and the “TUNEL positive cells (in words)” value is listed as “marked reduction”. In addition, in the series on Rd1 mice (Rd1 mouse), the retinal degeneration result is on record as “markedly delayed retinal degeneration”. Also, the “ERG photopic response vs baseline” value in the series on C57/B16 healthy mice (3 cda/s.m^2 stimulation, one week after injection, both DMSO and UNC1999 treated animals) was “reduced response”. In the series with C57/B16 healthy mice (5, 10 and 15 Hz, one week after intravitreal injection), the “ERG photopic flicker response, treated vs control group” value was “No differences between the control and the treated groups were observed”. For the same compound, the “ERG flicker response vs baseline” value in the series on C57/B16 healthy mice (5 Hz, both treated groups (DMSO and UNC1999)) was “a reduction of the response occurred”. In the series on C57/B16 healthy mice (15 Hz, all groups), the ERG flicker response entry is on record as “no differences were observed”. In addition, in the series on C57/B16 healthy mice (healthy adult mice, one week after intravitreal injection), the “ERG photopic maximum b-wave amplitude, treated vs vehicle group” value is given as “No differences between the two groups were noticed”. For the same compound, in the series on C57/B16 healthy mice (healthy adult mice, one week after intravitreal injection, vs DMSO group and baseline), the “ERG scotopic maximum b-wave amplitude” value is listed as “no significant differences with the baseline; also recorded: No differences in retina activity”. Further, in the series on Fam161a-/- mice (dorso-ventral axis, 4 days after the last injection), the “levels of H3K27me3 hyper trimethylation, injected vs non-injected side” value is on record as “did not observe any statistical differences; also recorded: no changes were observed”. For the same compound, in the series with Fam161a-/- mice (setting [4]), the “number of photoreceptor rows in the dorsal compartment” value was “No significant difference” and the “number of photoreceptor rows in the ventral ONL” value is listed as “statistical significant preservation”.

The values above are taken from patent US12636283B2, “Inhibition of PRC2 subunits to treat eye disorders” (FONDATION ASILE DES AVEUGLES, priority 2018, dated 2026).
